Test results: publication PMC11405051, “HLA A*24:02–restricted T cell receptors cross-recognize bacterial and preproinsulin peptides in type 1 diabetes” (The Journal of Clinical Investigation, 2024)

Tests used:
4C6 T cell clone = assay: Peptide titration activation assay of 4C6 T cell clone, MIP-1β ELISA; assay type: cell-based, human; conditions: duplicate conditions
Procedure: 4C6 T-cells were rested overnight in R5 media (as for R10 but with 5% FBS) to reduce
spontaneous activation, followed by incubation in the presence of C1R-HLA A*24:02, with peptide mixtures
of defined length and random amino acid sequence (X8-14 in which X is any of the 20 proteogenic L-amino
acids, excluding cysteine) in R5 media overnight at 37°C and 5% CO2. MIP-1β production was measured by
enzyme-linked immunosorbent assay (ELISA, R&D Systems, Bio-Techne, Minneapolis, MN, US) as a proxy
for T cell activation as previously described (22). Peptide mixtures were synthesised at >40% purity
(Pepscan Presto, Lelystad, Netherlands) and stored at -80°C in DMSO at 40 mM. Mixtures were used in
assays at a concentration of 1 mM. Following conformation of the preference of 4C6 T-cells for 9-mer
peptides, nonamer PS-CPL screening was performed using libraries synthesised at >40% purity as
described previously (22, 23, 43). Libraries were stored at -80°C in DMSO at 20 mM. For assays, 6×104
C1R-HLA A*24:02 were pulsed with 100 μM of each CPL library mixture for 2 h at 37°C. Following this,
3×10^4 4C6 T cells were co-incubated with the pulsed C1R-HLA A*24:02 cells overnight at 37°C and 5% CO2.
Assay conditions were performed in duplicate. Supernatants were harvested the following morning and
assayed for the presence of MIP-1β, as above, by ELISA.
universe with bias toward good agonists.

[1] = system: tetramer-enriched T cell lines from HLA A*24+ healthy donors; assay: Tetramer staining of tetramer-enriched T cell lines from HLA A*24+ healthy donors; assay type: cell-based, human
Procedure: The 4C6 T-cell clone was rested overnight in R5 media, as above then incubated with antigen presenting
cells, with 3 x104 4C6 T-cells and 6 x10^4 antigen presenting cells per well of a 96U well plate. The cells were
incubated overnight in R5 media at 37°C and 5% CO2, with all conditions performed in triplicate.
Supernatants were harvested and MIP-1β or TNF production measured by enzyme-linked immunosorbent
assay (ELISA, R&D Systems, Bio-Techne, Minneapolis, MN, US). Experiment 1 used C1R cells +/- HLA
A*24:02 +/- IGF2BP2 (irrelevant control), gsiA or fes genes. Experiment 2 used THP-1 and A549 cells: WT
and + HLA A*A24:02 +/- gsiA or fes genes. PHA (10 μg/mL) as a positive control and exogenous Klebsiella
peptides at 10 μM for comparison were also included. MIP-1β or TNF values for 4C6 T-cells or antigen
presenting cells incubated alone were subtracted during analysis.

[2] = Supplementary Figure 5, 60 biased-sampling peptides and index, 4C6 overnight with C1R-HLA A24:02, MIP-1β ELISA

Q: With “KNLPLVPII [9-mer drawn by CPL-biased importance sampling]” as the sequence, how does the EC50 (4C6 T cell clone; [2]) read?
A: > 10 µM

Q: How did the EC50 (4C6 T cell clone; [2]) turn out when “QKQPLLPII [9-mer drawn by CPL-biased importance sampling]” was run?
A: > 10 µM

Q: How did the EC50 (4C6 T cell clone; [2]) turn out when “IWQPLAGVA [9-mer drawn by CPL-biased importance sampling]” was run?
A: > 10 µM

Q: Which EC50 (4C6 T cell clone; [2]) does the source give for “QMLPLLPLF [9-mer drawn by CPL-biased importance sampling]” here?
A: > 10 µM

Q: With “DLQRLVSVI [9-mer drawn by CPL-biased importance sampling]” as the sequence, how does the EC50 (4C6 T cell clone; [2]) read?
A: > 10 µM

Q: For “IWPPLVPVT [9-mer drawn by CPL-biased importance sampling]”, which EC50 (4C6 T cell clone; [2]) is on record?
A: > 10 µM

Q: With “EYPPLLNIL [9-mer drawn by CPL-biased importance sampling]” as the sequence, how does the EC50 (4C6 T cell clone; [2]) read?
A: > 10 µM

Q: “DKPRLVPVI [9-mer drawn by CPL-biased importance sampling]” was tested. Which EC50 (4C6 T cell clone; [2]) did it give?
A: > 10 µM

Q: For “AYAAAAAAL [irrelevant HLA A*24:02 peptide used in control tetramers]”, which “% tetramer+” value ([1]; CMV […] tetramer-enriched line, donor 572D, single-staining) is on record?
A: 0%

Q: And the “% tetramer+” value ([1]; CMV […] tetramer-enriched line, donor BB25, single-staining)?
A: 0.05%

Q: And the “% tetramer+” value ([1]; CMV […] tetramer-enriched line, donor BB31, single-staining)?
A: 0.05%

Q: What about the “% tetramer+” value ([1]; CMV […] tetramer-enriched line, donor BB51, single-staining) of the same sequence?
A: 0.1%

Q: What about the “% tetramer+” value ([1]; CMV […] tetramer-enriched line, donor BB52, single-staining) of the same sequence?
A: 0.04%

Q: And the “% tetramer+” value ([1]; CMV […] tetramer-enriched line, donor BB57, single-staining)?
A: 0.02%

Q: What about the “% tetramer+” value ([1]; CMV […] tetramer-enriched line, donor BB64, single-staining) of the same sequence?
A: 0.3%

Q: What about the “% tetramer+” value ([1]; Kleb SLPRLFPLL tetramer-enriched line, donor 572D, single-staining) of the same sequence?
A: 0%

Q: What about the “% tetramer+” value ([1]; Kleb SLPRLFPLL tetramer-enriched line, donor BB25, single-staining) of the same sequence?
A: 0.03%

Q: And the “% tetramer+” value ([1]; Kleb SLPRLFPLL tetramer-enriched line, donor BB31, single-staining)?
A: 0.5%

Q: What about the “% tetramer+” value ([1]; Kleb SLPRLFPLL tetramer-enriched line, donor BB51, single-staining) of the same sequence?
A: 0.1%

Q: And the “% tetramer+” value ([1]; Kleb SLPRLFPLL tetramer-enriched line, donor BB52, single-staining)?
A: 0%

Q: What about the “% tetramer+” value ([1]; Kleb SLPRLFPLL tetramer-enriched line, donor BB57, single-staining) of the same sequence?
A: 0.06%

Q: And the “% tetramer+” value ([1]; Kleb SLPRLFPLL tetramer-enriched line, donor BB64, single-staining)?
A: 0.4%

Q: How did the EC50 (4C6 T cell clone; [2]) turn out when “ELPPLMSVW [9-mer drawn by CPL-biased importance sampling]” was run?
A: > 10 µM

Q: With “NLMRLMNLA [9-mer drawn by CPL-biased importance sampling]” as the sequence, how does the EC50 (4C6 T cell clone; [2]) read?
A: > 10 µM

Q: With “NHPRLVGVI [9-mer drawn by CPL-biased importance sampling]” as the sequence, how does the EC50 (4C6 T cell clone; [2]) read?
A: > 10 µM

Q: With “QHPPLASLI [9-mer drawn by CPL-biased importance sampling]” as the sequence, how does the EC50 (4C6 T cell clone; [2]) read?
A: > 10 µM

Q: “QMQRLVNIV [9-mer drawn by CPL-biased importance sampling]” was tested. Which EC50 (4C6 T cell clone; [2]) did it give?
A: > 10 µM

Q: Which EC50 (4C6 T cell clone; [2]) does the source give for “EYMPLVGML [9-mer drawn by CPL-biased importance sampling]” here?
A: > 10 µM

Q: For “QWPRLVNVF [9-mer drawn by CPL-biased importance sampling]”, which EC50 (4C6 T cell clone; [2]) is on record?
A: > 10 µM

Q: With “AHPPLFNVM [9-mer drawn by CPL-biased importance sampling]” as the sequence, how does the EC50 (4C6 T cell clone; [2]) read?
A: > 10 µM

Q: Which EC50 (4C6 T cell clone; [2]) does the source give for “EWQPLFSIA [9-mer drawn by CPL-biased importance sampling]” here?
A: > 10 µM

Q: With “LYQPLVGMV [9-mer drawn by CPL-biased importance sampling]” as the sequence, how does the EC50 (4C6 T cell clone; [2]) read?
A: > 10 µM

Q: How did the EC50 (4C6 T cell clone; [2]) turn out when “RLMPLVPVV [9-mer drawn by CPL-biased importance sampling]” was run?
A: > 10 µM

Q: With “DMMPLLPII [9-mer drawn by CPL-biased importance sampling]” as the sequence, how does the EC50 (4C6 T cell clone; [2]) read?
A: > 10 µM

Q: With “RNPPLVGIW [9-mer drawn by CPL-biased importance sampling]” as the sequence, how does the EC50 (4C6 T cell clone; [2]) read?
A: > 10 µM

Q: Which EC50 (4C6 T cell clone; [2]) does the source give for “NWQPLVSIW [9-mer drawn by CPL-biased importance sampling]” here?
A: > 10 µM

Q: With “SNPPLMGLM [9-mer drawn by CPL-biased importance sampling]” as the sequence, how does the EC50 (4C6 T cell clone; [2]) read?
A: > 10 µM

Q: “QYLRLFNIT [9-mer drawn by CPL-biased importance sampling]” was tested. Which EC50 (4C6 T cell clone; [2]) did it give?
A: > 10 µM

Q: Which EC50 (4C6 T cell clone; [2]) does the source give for “HYMPLFGVT [9-mer drawn by CPL-biased importance sampling]” here?
A: > 10 µM

Q: With “RHMRLFGML [9-mer drawn by CPL-biased importance sampling]” as the sequence, how does the EC50 (4C6 T cell clone; [2]) read?
A: > 10 µM

Q: Which EC50 (4C6 T cell clone; [2]) does the source give for “RLLPLVSVI [9-mer drawn by CPL-biased importance sampling]” here?
A: > 10 µM

Q: With “QKLPLLGLL [9-mer drawn by CPL-biased importance sampling]” as the sequence, how does the EC50 (4C6 T cell clone; [2]) read?
A: > 10 µM

Q: “SLLPLLGIL [9-mer drawn by CPL-biased importance sampling]” was tested. Which EC50 (4C6 T cell clone; [2]) did it give?
A: > 10 µM

Q: With “EMQPLFGMV [9-mer drawn by CPL-biased importance sampling]” as the sequence, how does the EC50 (4C6 T cell clone; [2]) read?
A: > 10 µM

Q: With “LMMPLAPMM [9-mer drawn by CPL-biased importance sampling]” as the sequence, how does the EC50 (4C6 T cell clone; [2]) read?
A: > 10 µM

Q: With “SNMRLMPVV [9-mer drawn by CPL-biased importance sampling]” as the sequence, how does the EC50 (4C6 T cell clone; [2]) read?
A: > 10 µM

Q: For “EYPPLVPIL [fungal peptide, Aspergillus niger, Unnamed protein product]”, which EC50 (4C6 T cell clone; Supplementary Figure 6, top 20 fungal database peptides, 4C6 overnight with C1R HLA A*24:02, MIP-1β ELISA) is on record?
A: > 10 µM

Q: With “NKLRLVNIM [9-mer drawn by CPL-biased importance sampling]” as the sequence, how does the EC50 (4C6 T cell clone; [2]) read?
A: > 10 µM

Q: “ILMPLMPMT [9-mer drawn by CPL-biased importance sampling]” was tested. Which EC50 (4C6 T cell clone; [2]) did it give?
A: > 10 µM

Q: “QMPPLVNIM [9-mer drawn by CPL-biased importance sampling]” was tested. Which EC50 (4C6 T cell clone; [2]) did it give?
A: > 10 µM

Q: Which EC50 (4C6 T cell clone; [2]) does the source give for “SYPPLVGMV [9-mer drawn by CPL-biased importance sampling]” here?
A: > 10 µM

Q: “ENMPLMPMI [9-mer drawn by CPL-biased importance sampling]” was tested. Which EC50 (4C6 T cell clone; [2]) did it give?
A: > 10 µM

Q: Which EC50 (4C6 T cell clone; [2]) does the source give for “DHPPLFPMA [9-mer drawn by CPL-biased importance sampling]” here?
A: > 10 µM

Q: Which EC50 (4C6 T cell clone; [2]) does the source give for “SMMRLLPVW [9-mer drawn by CPL-biased importance sampling]” here?
A: > 10 µM

Q: How did the EC50 (4C6 T cell clone; [2]) turn out when “LLMPLVGLW [9-mer drawn by CPL-biased importance sampling]” was run?
A: > 10 µM

Q: For “ALMRLFSLF [9-mer drawn by CPL-biased importance sampling]”, which EC50 (4C6 T cell clone; [2]) is on record?
A: > 10 µM

Q: Which EC50 (4C6 T cell clone; [2]) does the source give for “RYPPLVPML [9-mer drawn by CPL-biased importance sampling]” here?
A: > 10 µM

Q: With “DNPRLFGLT [9-mer drawn by CPL-biased importance sampling]” as the sequence, how does the EC50 (4C6 T cell clone; [2]) read?
A: > 10 µM

Q: For “SWLRLFNMM [9-mer drawn by CPL-biased importance sampling]”, which EC50 (4C6 T cell clone; [2]) is on record?
A: > 10 µM

Q: For “KWLRLMPMM [9-mer drawn by CPL-biased importance sampling]”, which EC50 (4C6 T cell clone; [2]) is on record?
A: > 10 µM

Q: Which EC50 (4C6 T cell clone; [2]) does the source give for “HYQPLVPVL [9-mer drawn by CPL-biased importance sampling]” here?
A: > 10 µM

Q: Which EC50 (4C6 T cell clone; [2]) does the source give for “QKQRLASIL [9-mer drawn by CPL-biased importance sampling]” here?
A: > 10 µM

Q: With “DYQRLVNLL [9-mer drawn by CPL-biased importance sampling]” as the sequence, how does the EC50 (4C6 T cell clone; [2]) read?
A: > 10 µM
